Test results published in US9611281B2, “BODIPY derivatives and methods of synthesis and use thereof” (The Board of Regents of the University of Oklahoma, priority 2013, dated 2017).

Legend:
[1] = Optical properties (absorption, emission, extinction coefficient) of BDP635 and derivative SBDPiRs; assay type: physicochemical
[2] = tested on: BALB/c mice bearing colon-26 cells (mouse colon carcinoma cells); assay: In vivo imaging with SBDPiR790; conditions: 2.5 μmol/kg i.p.
Procedure: Female Balb/c mice were purchased from NCI (Federick, Md.). Mice were housed and handled in the College of Pharmacy animal facility, University of Oklahoma Health Sciences Center, Oklahoma City, Okla. All animal experiments were approved by IACUC, University of Oklahoma Health Sciences Center (personal approval was offered). Injection solution of SBDPiR790 was prepared by solubilizing it in DMSO (4 mM), and then it was diluted with 1% Tween 80-5% dextrose solution (PBS). The solution was filtered through a 0.2 μm sterile syringe filter before i.p. injection.
BALB/c mice bearing colon-26 cells (mouse colon carcinoma cells) were used for this study. 6-8 week old Balb/c mice were shaved and depilated with hair removal cream (Nair) at the upper back. The mice were subcutaneously inoculated with colon 26 cells at the neck region with […] in 0.1 ml PBS solution. Tumors with 4-6 mm diameter size were made in a week. The in vivo Xtreme imaging system (Carestream Health, Inc.) was used in acquiring images as mice were kept under safe anaesthesia using Isoflurane. The instrumental conditions for the imaging were as follows: fluorescence mode with excitation 760 nm and emission 830 nm; exposure time 5 sec; F/stop: 2 and pixel 2×2. Images collected were then processed using the Carestream MI imaging software to equally adjusted minima and maxima scale.
All mice received 2.5 μmol/kg of SBDPiR790 (MW=636.11 g/mol) solution in PBS (0.2 ml) via i.p. injection. Images were taken at 0 (before), 15 minutes, 3, 6, and 24 hours postinjection. […] Particularly SBDPiR790 can be a practical alternative to the sole clinically approved NIR probe, ICG. The stability, and excellent photophysical properties of SBDPiR790 and its lipophilic character make it useful for varied applications including cancer diagnosis and neurological imaging taking advantage of its ability to cross the blood-brain barrier.

[3] = Photostability (photobleaching under light illumination); assay type: physicochemical
Procedure: (§1) Singlet oxygen generation and photostability: A singlet oxygen generation experiment on compound 53 using the indirect method of DPBF photooxidation was performed. There were strong similarities of the behavior of 53 towards DPBF with SBDPiR715. […] The photooxidation of DPBF was monitored by UV-vis spectrophotometer at 410 nm. […] Additionally, less than 30% of 53 photobleached under the harsh light illumination condition over a period of an hour, which is a strong evidence for photostability (FIG. 21).

nude mice = assay: In vivo optical imaging with Compound 53; set-up: species or system mouse; conditions: for in vivo fluorescence image: 2.5 μmol/kg i.p.
Procedure: Optical imaging was performed with an IVIS Spectrum small-animal in vivo imaging system (Caliper LS). The Living Image Software v3.0 (Caliper LS) was used to analyze images and measurements of fluorescent signals. Excitation and emission wavelengths of 720 nm and 760 nm, respectively, were used to acquire in vivo fluorescent images of Compound 53 (M.W=[…]). All images were attained using a 1-s exposure time and an f/stop of 1, with a sampling of multiple angles with animal under Isoflurane anaesthesia. Animals were injected with 2.5 μmol/kg (2 mg/kg) of 53 via i.p. administration.

[4] = Singlet oxygen generation, indirect method of DPBF photooxidation; conditions: DPBF photooxidation monitored at 410 nm
Procedure: as §1

Compound	λabs [1]	ε [1]	λflu [1]	other results
COc1ccc(Oc2cc3c(s2)=CC2=C(C(F)(F)F)c4cc5sc(Oc6ccc(OC)cc6)cc5n4[B-](F)(F)[N+]=32)cc1 [SBDPiR650_OMe, 2,8-Di(4-methoxyphenoxy)-11-trifluoromethyl-dithieno[2,3-b]-[3,2-g]-5,5-difluoro-5-bora-3a,4a-diaza-s-indacene]	649 nm	118 000 M^−1 cm^−1	660 nm	–
COc1cc(-c2cc3c(s2)=CC2=C(C(F)(F)F)c4cc5sc(-c6cc(OC)c(OC)c(OC)c6)cc5n4[B-](F)(F)[N+]=32)cc(OC)c1OC [SBDPiR730, 2,8-Di(3,4,5-trimethoxyphenyl)-11-trifluoromethyl-dithieno[2,3-b]-[3,2-g]-5,5-difluoro-5-bora-3a,4a-diaza-s-indacene]	728 nm	140 000 M^−1 cm^−1	761 nm	–
2,8-Di(bromo)-11-trifluoromethyl-dithieno[2,3-b]-[3,2-g]-5,5-difluoro-5-bora-3a,4a-dithio-s-indacene [BDP635]	635 nm	–	650 nm	–
O=C(O)COc1ccc(-c2sc3c(c2Br)=[N+]2C(=C(C(F)(F)F)c4cc5sc(-c6ccc(OCC(=O)O)cc6)c(Br)c5n4[B-]2(F)F)C=3)cc1 [Compound 53, 3,7-Dibromo-2,8-di(4-Carboxymethoxy-phenyl)-11-trifluoromethyl-dithieno[2,3-b]-[3,2-g]-5,5-difluoro-5-bora-3a,4a-diaza-s-indacene]	–	–	–	photostability compared with m-THPC [3]: relatively better than the clinically approved m-THPC (Foscan); fraction photobleached ([3]; harsh light illumination over a period of an hour): less than 30%; in vivo fluorescence signal (nude mice; 2.5 μmol/kg (2 mg/kg) i.p., ex 720 nm / em 760 nm): Bright fluorescence signals were detected; in vivo fluorescence image (nude mice; 5 and 10 minutes): two bright areas were observed in the mid-body; in vivo fluorescence image (nude mice; 3 hours and 6 hours): most skin showed bright emission; in vivo fluorescence image (nude mice; 12 hours): the intensity of skin was lower than the 3 hour and 6 hour images; singlet oxygen generation [4]: potent singlet oxygen generator
F[B-]1(F)n2c(cc3sc(Sc4ccccc4)cc32)C(C(F)(F)F)=C2C=c3sc(Sc4ccccc4)cc3=[N+]21 [SBDPiR700, 2,8-Di(thiophenoxy)-11-trifluoromethyl-dithieno[2,3-b]-[3,2-g]-5,5-difluoro-5-bora-3a,4a-diaza-s-indacene]	694 nm	105 000 M^−1 cm^−1	715 nm	–
F[B-]1(F)n2c(cc3sc(Oc4ccc(-c5ccccc5)cc4)cc32)C(C(F)(F)F)=C2C=c3sc(Oc4ccc(-c5ccccc5)cc4)cc3=[N+]21 [SBDPiR650, 2,8-Di(biphenyl-4-yloxy)-11-trifluoromethyl-dithieno[2,3-b]-[3,2-g]-5,5-difluoro-5-bora-3a,4a-diaza-s-indacene]	649 nm	83 000 M^−1 cm^−1	660 nm	–
COC(=O)c1ccc(C2=C3C=c4sc(-c5ccc(OC)cc5)cc4=[N+]3[B-](F)(F)n3c2cc2sc(-c4ccc(OC)cc4)cc23)cc1 [Compound 50, 2,8-Di(4-Methoxy-phenyl)-11-benzoic acid methyl ester-dithieno[2,3-b]-[3,2-g]-5,5-difluoro-5-bora-3a,4a-diaza-s-indacene]	–	–	–	fluorescence [1]: relatively low fluorescence; 0-0 absorption ([1]; in CHCl3): 685 nm; molar extinction coefficient ([1]; in CHCl3): 85 000 M^−1 cm^−1

Second part, led by results:

λabs [1]	ε [1]	λflu [1]	Compound	other results
841 nm	–	–	CN(C)c1ccc(-c2cc3c(s2)=CC2=C(C(F)(F)F)c4cc5sc(-c6ccc(N(C)C)cc6)cc5n4[B-](F)(F)[N+]=32)cc1 [SBDPiR840, 2,8-Di(4-N,N,dimethylaminophenyl)-11-trifluoromethyl-dithieno[2,3-b]-[3,2-g]-5,5-difluoro-5-bora-3a,4a-diaza-s-indacene]	–
786 nm	85 000 M^−1 cm^−1	–	COc1ccc(C=Cc2cc3c(s2)=CC2=C(C(F)(F)F)c4cc5sc(C=Cc6ccc(OC)cc6)cc5n4[B-](F)(F)[N+]=32)cc1 [SBDPiR790, 2,8-Di(4-(methoxy-phenyl)vinyl)-11-trifluoromethyl-dithieno[2,3-b]-[3,2-g]-5,5-difluoro-5-bora-3a,4a-diaza-s-indacene]	in vivo fluorescence emission image ([2]; 15 minutes postinjection, ex 760 nm / em 830 nm): most of the dye still remained in the peritoneal cavity; in vivo fluorescence emission image ([2]; 3 hours postinjection): all skin area showed relatively bright emission with intense bright spots in mid-body; in vivo fluorescence emission image ([2]; 6 hours postinjection): an intense emission was observed in the tumor area; in vivo fluorescence emission image ([2]; 24 hours postinjection): brighter emission was observed at the tumor site than other body
738 nm	101 000 M^−1 cm^−1	763 nm	Oc1ccc(-c2cc3c(s2)=CC2=C(C(F)(F)F)c4cc5sc(-c6ccc(O)cc6)cc5n4[B-](F)(F)[N+]=32)cc1 [SBDPiR740, 2,8-Di(4-hydroxyphenyl)-11-trifluoromethyl-dithieno[2,3-b]-[3,2-g]-5,5-difluoro-5-bora-3a,4a-diaza-s-indacene]	–
753 nm	110 000 M^−1 cm^−1	785 nm	F[B-]1(F)n2c(cc3sc(C=Cc4ccccc4)cc32)C(C(F)(F)F)=C2C=c3sc(C=Cc4ccccc4)cc3=[N+]21 [SBDPiR755, 2,8-Di(styryl)-11-trifluoromethyl-dithieno[2,3-b]-[3,2-g]-5,5-difluoro-5-bora-3a,4a-diaza-s-indacene]	–
731 nm	185 000 M^−1 cm^−1	755 nm	COc1ccc(-c2cc3c(s2)=CC2=C(C(F)(F)F)c4cc5sc(-c6ccc(OC)cc6)cc5n4[B-](F)(F)[N+]=32)cc1 [SBDPiR731, 2,8-Di(4-methoxyphenyl)-11-trifluoromethyl-dithieno[2,3-b]-[3,2-g]-5,5-difluoro-5-bora-3a,4a-diaza-s-indacene]	–
733 nm	125 000 M^−1 cm^−1	763 nm	F[B-]1(F)n2c(cc3sc(-c4cccs4)cc32)C(C(F)(F)F)=C2C=c3sc(-c4cccs4)cc3=[N+]21 [SBDPiR735, 2,8-Di(thiophenyl)-11-trifluoromethyl-dithieno[2,3-b]-[3,2-g]-5,5-difluoro-5-bora-3a,4a-diaza-s-indacene]	–
